System: rhythmic contractions of the bladder
Experiment: Effect on rhythmic contractions of bladder (cystometry in urethane-anesthetized rats, i.v. administration)
Assay type: in vivo
Conditions: female SD-rats under urethane anesthesia, intravenous, ascending doses in 10% PEG, relative to vehicle; for Contractile amplitude: ED30: mean amplitude of bladder contraction during 10-minute period after administration; for Contractile frequency: ED30: mean frequency of bladder contraction during 10-minute period after administration
Protocol: Effect on Rhythmic Contractions of Bladder This test was carried out by some modification of the method of Hedge et al. [Hedge S S. Choppin A. Bonhaus D. Briaud S. Loeb M. Moy T M. Loury D. Eglen R M., British Journal of Pharmacology. 120(8):1409-18, 1997]. Female SD-rats were subjected to abdominal midline incision under urethane anesthesia (0.6 g/kg, s.c. and i.p.), the ureters were ligated, and its kidney side was cut off. A polyethylene cannula was inserted from the urethra into the bladder and the urethra was ligated. The other end of the cannula was connected to a three way connector, to which a constant infusion pump having a 20 ml attached syringe and a pressure transducer for cystometry were also connected. A cannula for administration of a test sample was inserted into the jugular vein and a cannula for measurement of blood pressure and heart rate was inserted into the carotid artery. The intravesical pressure, blood pressure and heart rate were continuously recorded on a polygraph. Physiological saline was infused until rhythmic contractions of the bladder were observed, and after having confirmed stable rhythmic contractions of the bladder, vehicle (10% PEG) and solutions of a test sample dissolved in 10% PEG were administered intravenously in turn from its lower dose. The mean of amplitude and frequency of bladder contraction during a 10-minute period after administration were measured at each dose level, and their rates of change relative to the values obtained when the vehicle alone was administered were calculated, thereby determining ED30 values for the contractile amplitude and the contractile frequency, respectively. It is apparent from Table 1 that the compounds of the present invention depressed not only the contractile amplitude but also the contractile frequency.

Compound | Contractile amplitude: ED30 [mg/kg] | Contractile frequency: ED30 [mg/kg]
O=C1Nc2ccccc2C(c2ccccc2)N1C1CCN(Cc2cccc(OC(F)(F)F)c2)CC1 (single isomer, unassigned; (+)) [Example 1, (+)-3-{1-[3-(trifluoromethoxy)benzyl]piperidin-4-yl}-4-phenyl-3,4-dihydro-2(1H)-quinazolinone] | 1.71 | 1.31
Cc1cccc(CN2CCC(N3C(=O)Nc4ccccc4C3C(C)C)CC2)n1 (single isomer, unassigned; (+)) [Example 3, (+)-4-isopropyl-3-{1-[(6-methyl-2-pyridinyl)methyl]piperidin-4-yl}-3,4-dihydro-2(1H)-quinazolinone] | 0.94 | 1.79
CCCc1cccc(CN2CCC(N3C(=O)Nc4ccccc4C3c3ccccc3)CC2)c1 (stereo not shown) [Example 2-1, Optically Active Form of 3-[1-(3-propylphenylmethyl)piperidin-4-yl]-4-phenyl-3,4-dihydro-2(1H)-quinazolinone] | 1.09 | 0.70
CC(C)Oc1cccc(CN2CCC(N3C(=O)Nc4ccccc4C3c3ccccc3)CC2)c1 (stereo not shown) [Example 2-3, Optically Active Form of 3-[1-(3-isopropoxyphenylmethyl)piperidin-4-yl]-4-phenyl-3,4-dihydro-2(1H)-quinazolinone] | 1.10 | 1.54
O=C1Nc2ccccc2C(c2ccccc2)N1C1CCN(Cc2cccc(OCC(F)(F)F)c2)CC1 (stereo not shown) [Example 2-4, Optically Active Form of 3-{1-[3-(2,2,2-trifluoroethoxy)phenylmethyl]piperidin-4-yl}-4-phenyl-3,4-dihydro-2(1H)-quinazolinone] | 1.42 | 1.35
